In ChEMBL document CHEMBL1133002 (J Med Chem, 2000):

How the values were obtained:
[1] = system: Mus musculus; test: (§1) potential antinociceptive activity initially at a screening dose of 30 mg/kg po in the mouse abdominal irritant test(MAIT) using acetylcholine bromide as irritant; format: functional; conditions: Abdomen
[2] = species: Rattus norvegicus; test: ED50 value was measured using rat air-induced abdominal irritant test(RAIT); format: functional; conditions: Abdomen
[3] = target: T1, Alpha-2A adrenergic receptor (Rattus norvegicus, UniProt P22909); test: in vitro alpha-2A adrenergic receptor binding assay from rats, using RX 821002 as the displaceable ligand
T1 sequence (P22909 whole entry): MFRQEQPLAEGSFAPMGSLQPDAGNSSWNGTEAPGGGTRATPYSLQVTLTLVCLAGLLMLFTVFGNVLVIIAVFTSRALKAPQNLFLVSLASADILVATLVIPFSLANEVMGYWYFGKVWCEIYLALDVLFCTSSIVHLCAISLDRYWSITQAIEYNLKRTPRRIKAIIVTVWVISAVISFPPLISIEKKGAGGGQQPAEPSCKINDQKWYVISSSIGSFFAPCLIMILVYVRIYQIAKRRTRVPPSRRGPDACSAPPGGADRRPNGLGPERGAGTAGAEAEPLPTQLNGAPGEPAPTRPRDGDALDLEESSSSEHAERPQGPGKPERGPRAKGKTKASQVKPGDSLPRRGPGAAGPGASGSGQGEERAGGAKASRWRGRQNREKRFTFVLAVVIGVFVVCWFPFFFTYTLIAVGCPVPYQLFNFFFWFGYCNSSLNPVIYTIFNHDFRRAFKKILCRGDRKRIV

[4] = system: Mus musculus; test: as §1; conditions: Abdomen, read-out: Inhibition
[5] = target: T2, Adrenergic receptor alpha-1 (Rattus norvegicus, UniProt P15823+P23944+P43140); test: in vitro alpha-1 adrenergic receptor binding assay from rats, using RX 821002 as the displaceable ligand; format: protein assay
T2 sequence (P15823 whole entry): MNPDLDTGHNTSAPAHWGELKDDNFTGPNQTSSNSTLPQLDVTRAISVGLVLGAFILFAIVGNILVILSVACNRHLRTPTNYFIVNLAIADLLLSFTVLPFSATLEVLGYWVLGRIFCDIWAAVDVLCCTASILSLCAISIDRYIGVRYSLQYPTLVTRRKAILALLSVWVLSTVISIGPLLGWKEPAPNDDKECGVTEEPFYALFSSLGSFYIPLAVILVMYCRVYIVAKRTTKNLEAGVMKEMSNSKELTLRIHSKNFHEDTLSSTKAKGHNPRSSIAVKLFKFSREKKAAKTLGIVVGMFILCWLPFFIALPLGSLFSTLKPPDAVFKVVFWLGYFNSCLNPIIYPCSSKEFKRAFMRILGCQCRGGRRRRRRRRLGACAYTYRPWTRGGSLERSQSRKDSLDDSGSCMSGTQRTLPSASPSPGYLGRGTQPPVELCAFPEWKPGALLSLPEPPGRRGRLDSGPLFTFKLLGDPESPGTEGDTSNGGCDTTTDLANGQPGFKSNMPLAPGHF
T2 sequence (P23944 whole entry): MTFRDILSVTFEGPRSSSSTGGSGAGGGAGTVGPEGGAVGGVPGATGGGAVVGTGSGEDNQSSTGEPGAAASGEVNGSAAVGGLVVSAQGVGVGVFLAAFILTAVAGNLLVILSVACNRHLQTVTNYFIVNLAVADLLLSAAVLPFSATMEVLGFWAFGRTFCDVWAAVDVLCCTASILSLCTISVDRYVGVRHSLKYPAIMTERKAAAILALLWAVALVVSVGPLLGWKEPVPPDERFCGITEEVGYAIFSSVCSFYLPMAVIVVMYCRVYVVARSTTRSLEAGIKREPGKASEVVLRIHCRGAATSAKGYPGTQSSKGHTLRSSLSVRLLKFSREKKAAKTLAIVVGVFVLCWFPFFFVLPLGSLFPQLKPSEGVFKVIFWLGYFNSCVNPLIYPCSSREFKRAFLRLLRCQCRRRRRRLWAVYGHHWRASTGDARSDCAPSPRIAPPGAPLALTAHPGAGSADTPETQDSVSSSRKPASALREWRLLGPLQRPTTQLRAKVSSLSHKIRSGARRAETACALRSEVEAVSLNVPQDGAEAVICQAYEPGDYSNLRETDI
T2 sequence (P43140 whole entry): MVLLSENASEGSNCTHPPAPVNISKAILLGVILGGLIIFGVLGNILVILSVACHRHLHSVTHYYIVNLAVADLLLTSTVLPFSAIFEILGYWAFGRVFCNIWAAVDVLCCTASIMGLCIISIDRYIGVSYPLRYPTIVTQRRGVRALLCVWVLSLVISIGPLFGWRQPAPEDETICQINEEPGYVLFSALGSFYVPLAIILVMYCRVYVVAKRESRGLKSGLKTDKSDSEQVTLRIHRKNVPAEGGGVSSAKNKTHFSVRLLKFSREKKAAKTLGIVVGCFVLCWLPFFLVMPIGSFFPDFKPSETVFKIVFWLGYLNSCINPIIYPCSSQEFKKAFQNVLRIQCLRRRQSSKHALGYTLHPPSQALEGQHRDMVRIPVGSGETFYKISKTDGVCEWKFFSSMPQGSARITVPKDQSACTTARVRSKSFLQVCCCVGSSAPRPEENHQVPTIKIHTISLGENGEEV

[6] = target: T3, Alpha-2B adrenergic receptor (Rattus norvegicus, UniProt P19328); test: in vitro alpha-2B adrenergic receptor binding assay from rats, using RX 821002 as the displaceable ligand
T3 sequence (P19328 whole entry): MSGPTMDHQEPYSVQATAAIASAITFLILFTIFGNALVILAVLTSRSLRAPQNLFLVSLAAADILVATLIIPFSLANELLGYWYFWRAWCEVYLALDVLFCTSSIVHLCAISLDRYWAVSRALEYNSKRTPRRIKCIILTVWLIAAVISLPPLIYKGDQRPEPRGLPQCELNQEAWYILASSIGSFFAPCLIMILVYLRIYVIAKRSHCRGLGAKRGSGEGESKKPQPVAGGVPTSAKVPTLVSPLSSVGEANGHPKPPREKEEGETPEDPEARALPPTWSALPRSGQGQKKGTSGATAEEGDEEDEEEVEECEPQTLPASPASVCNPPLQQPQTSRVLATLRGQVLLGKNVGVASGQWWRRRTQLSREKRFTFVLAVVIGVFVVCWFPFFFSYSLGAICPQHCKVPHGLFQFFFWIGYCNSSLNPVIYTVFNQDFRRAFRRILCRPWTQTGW

[7] = species: Mus musculus; test: Peroral ED50 value was measured using mouse 48 degree hot plate test; format: functional; conditions: po
[8] = species: Mus musculus; test: Peroral ED50 value was measured using mouse abdominal irritant test(MAIT); format: functional; conditions: Abdomen, po
[9] = species: Mus musculus; test: Peroral ED50 value was measured using mouse tail flick test; format: functional; conditions: po
[10] = target: T4, Alpha-2C adrenergic receptor (Rattus norvegicus, UniProt P22086); test: in vitro alpha-2C adrenergic receptor binding assay from rats, using RX 821002 as the displaceable ligand
T4 sequence (P22086 whole entry): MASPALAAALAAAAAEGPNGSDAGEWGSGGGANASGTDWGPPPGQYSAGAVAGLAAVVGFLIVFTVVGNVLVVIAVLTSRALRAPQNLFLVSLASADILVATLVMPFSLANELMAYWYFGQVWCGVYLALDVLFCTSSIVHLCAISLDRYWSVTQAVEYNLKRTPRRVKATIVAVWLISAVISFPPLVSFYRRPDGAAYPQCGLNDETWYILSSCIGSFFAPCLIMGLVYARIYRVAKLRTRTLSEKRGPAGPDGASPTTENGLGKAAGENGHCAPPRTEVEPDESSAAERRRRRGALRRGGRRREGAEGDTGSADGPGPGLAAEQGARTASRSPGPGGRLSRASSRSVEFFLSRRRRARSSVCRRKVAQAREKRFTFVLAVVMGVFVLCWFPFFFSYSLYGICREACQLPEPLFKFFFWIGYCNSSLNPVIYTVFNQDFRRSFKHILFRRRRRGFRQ

[11] = target: T5, Alpha-2C adrenergic receptor (Rattus norvegicus) (UniProt P22086); test: % inhibition of alpha-2C adrenergic receptor binding at 1 uM
T5 sequence (whole entry): T4 sequence (P22086 whole entry)

[12] = target: T6, Alpha-2A adrenergic receptor (Rattus norvegicus) (UniProt P22909); test: % inhibition of alpha-2A adrenergic receptor binding at 1 uM
T6 sequence (whole entry): T1 sequence (P22909 whole entry)

| SMILES | inhibition in vivo at 30 mg/kg [1] [%] | ED50 [2] [mg/kg] | Ki [3] [nM] | inhibition in vivo at 30 mg/kg [4] [%] | Ki [5] [nM] | Ki [6] [nM] | ED50 [7] [mg/kg] | ED50 [8] [mg/kg] | ED50 [9] [mg/kg] | Ki [10] [nM] | inhibition [11] [%] | inhibition [12] [%] |
| --- | --- | --- | --- | --- | --- | --- | --- | --- | --- | --- | --- | --- |
| Clc1cccc(Cl)c1NC1=NCCN1 [CLONIDINE] | 0.05 | 0.1 |  |  |  |  |  |  |  |  |  |  |
| Cc1cccc([C@H](C)c2cnc[nH]2)c1C [DEXMEDETOMIDINE] |  | 0.12 | 5 | 0.09 |  |  |  |  |  |  |  |  |
| C1=C(c2c[nH]cn2)c2ccsc2CC1 | 100 | 15.1 | 254 |  | 443 | 621 | 25.9 | 11.6 | 100 |  |  |  |
| Cc1sc(C)c2c1CCC=C2c1c[nH]cn1 | 40 |  | 25 |  | 110 | 100 |  |  |  | 26 |  |  |
| C1=C(c2c[nH]cn2)c2sccc2CC1 | 60 |  | 224 |  | 399 | 940 |  |  |  |  |  |  |
| c1nc(C2CCCc3sccc32)c[nH]1 (configuration not stated) | 100 | 0.9 | 27 |  | 110 | 99 |  |  |  | 172 |  |  |
| c1cc(-c2c[nH]cn2)c2ccsc2c1 | 60 |  | 277 |  | 343 | 663 |  |  |  |  |  |  |
| Cc1sc(C)c2c1CCCC2c1c[nH]cn1 (configuration not stated) | 93 | 7.9 | 68 |  | 48 | 141 |  |  |  | 205 |  |  |
| c1nc(C2CCCc3ccsc32)c[nH]1 (configuration not stated) | 73 |  |  |  | 91 |  |  |  |  |  | 54 | 87 |
